Experimental data: EP1043336A2, “Stereospecific antibodies for imidazolinone herbicides” (The Regents of the University of California, priority 1999, dated 2000)

Columns and labels:
MAb 3A2 = assay: Indirect competition EIA, cross-reactivity with common agrochemicals (wells coated with hapten 17-OA); format: binding, mouse; details: for inhibition: 5-10 ppm
Protocol: EIAs were done essentially as described by Karu et al (1994). For indirect EIAs, hapten-protein conjugates were adsorbed to wells of Immulon 2™ 96-well plates (Dynatech) in 0.1 mL of coating buffer (0.015 M Na2CO3 ― 0.035 M NaHCO3 ―0.003 M NaN3, pH 9.6). PBS-Tween containing 0.05% gelatin, 0.45 micron-filtered, was used as the diluent for antibodies and antibody-analyte mixtures, and as a blocking solution to prevent adventitious binding. The detecting antibody for the indirect EIAs was alkaline phosphatase conjugated goat anti-mouse IgG and IgM The substrate solution for color development was p-nitrophenyl phosphate 1 mg/mL, in 10% (w/v) diethanolamine-HCl, pH 9.8 ― 0.5 mM MgCl2 ― 3 mM NaN3. • 1. Indirect competition EIA. Indirect competition EIA (immobilized hapten conjugate) was used to evaluate the responses of mice, screen the MAbs, and quantify imidazolinone analytes. Optimal amounts of imidazolinone-BSA or -OVA conjugate for plate coating and dilutions for the hybridoma culture supernate or antiserum were determined by checkerboard assay. To perform the assay, wells were coated overnight at 4°C with a limiting amount of conjugate in 0.1 mL of coating buffer. Imidazolinone standards (0.5 to 5000 ppb) or unknowns were mixed with a limiting amount of antiserum or hybridoma culture fluid in the diluent and incubated overnight at 4°C in tightly sealed polypropylene tubes. The coated wells were washed and blocked with 0.2 mL of 0.05% gelatin in PBS-Tween for 30 minutes at room temperature. After another wash, aliquots (0.1 mL) of the antibody-analyte mixture were added to wells, and the remainder of the assay was performed as previously described (Karu et al., 1994). • 2. Direct competition EIA. Direct EIAs were performed by capturing the MAb on microwells and allowing the analyte to compete with a HRP-conjugated hapten for binding. Bound HRP-conjugate was then detected with a commercial HRP substrate. The sensitivity of this assay was enhanced by use of a commercial enzymatic signal amplification kit (GIBCO-BRL). Wells were coated with 200 or 500 ng of affinity-purified goat anti-mouse IgG or anti-mouse IgG Fc in the coating buffer at 4°C overnight. The next day, the wells were washed and blocked with PBS-Tween-gelatin for 30 minutes at room temperature, and then incubated for 1.5 hours at room temperature with hybridoma culture supernate. The plates were washed with PBS-Tween, and 0.1 mL of diluent containing the analyte and a limiting amount of biotinylated imidazolinone was added for 1.5 h at room temperature. The wells were washed three times with PBS-Tween, and Extravidin-alkaline phosphatase conjugate (Sigma) was then added for 30 minutes at room temperature. The plates were washed again with TBS (0.05 M Tris-HCl, pH 7.5,― 0.15 M NaCl) to remove remaining inorganic phosphate, which can inhibit the GIBCO-BRL EIA Amplification system. Substrate solution for the amplification step (0.05 mL) was added for 15 minutes at room temperature, followed by 0.05 mL of the enzymatic amplifying solution and chromogen. Color development at 492 nm was recorded. • 3. EIA Data Analysis. Color development was monitored on a Multiskan EIA reader (Flow Laboratories) interfaced with a Macintosh computer, and the rates of the reaction were calculated by linear regression. Competition EIA dose- response curves were fitted with a 4-parameter logistic equation (Karu et al., 1994). […]

[1] = test system: scFv p3A5.1c7 (scFv 3A5, SEQ.ID NO. 3); assay: Relative affinity of MAb and affinity-purified scFv by indirect EIA with equimolar protein; format: binding, mouse; details: indirect EIA on 16-BSA, scFv versus MAb 3A5
Protocol: The relative affinities of the MAbs and affinity-purified scFv were determined by indirect EIA using equimolar amounts of protein, essentially as described by Graham, B. M., et al. 1995. Cloning, expression, and characterization of a single-chain antibody fragment to the herbicide paraquat. J. Chem. Tech. Biotechnol. 63: 279-289. The results are illustrated in graphical form in Figures 15A (16-BSA) and 15B (17-OA), with the MAb represented by the solid line and the scFv represented by the broken line in each plot.

[2] = test system: panel of monoclonal antibodies (MAbs); assay: Detection of imidazolinones by the panel of MAbs (EIA); format: binding, mouse
Protocol: EIAs were done essentially as described by Karu et al (1994). For indirect EIAs, hapten-protein conjugates were adsorbed to wells of Immulon 2™ 96-well plates (Dynatech) in 0.1 mL of coating buffer (0.015 M Na2CO3 ― 0.035 M NaHCO3 ―0.003 M NaN3, pH 9.6). PBS-Tween containing 0.05% gelatin, 0.45 micron-filtered, was used as the diluent for antibodies and antibody-analyte mixtures, and as a blocking solution to prevent adventitious binding. The detecting antibody for the indirect EIAs was alkaline phosphatase conjugated goat anti-mouse IgG and IgM The substrate solution for color development was p-nitrophenyl phosphate 1 mg/mL, in 10% (w/v) diethanolamine-HCl, pH 9.8 ― 0.5 mM MgCl2 ― 3 mM NaN3. • 1. Indirect competition EIA. Indirect competition EIA (immobilized hapten conjugate) was used to evaluate the responses of mice, screen the MAbs, and quantify imidazolinone analytes. Optimal amounts of imidazolinone-BSA or -OVA conjugate for plate coating and dilutions for the hybridoma culture supernate or antiserum were determined by checkerboard assay. To perform the assay, wells were coated overnight at 4°C with a limiting amount of conjugate in 0.1 mL of coating buffer. Imidazolinone standards (0.5 to 5000 ppb) or unknowns were mixed with a limiting amount of antiserum or hybridoma culture fluid in the diluent and incubated overnight at 4°C in tightly sealed polypropylene tubes. The coated wells were washed and blocked with 0.2 mL of 0.05% gelatin in PBS-Tween for 30 minutes at room temperature. After another wash, aliquots (0.1 mL) of the antibody-analyte mixture were added to wells, and the remainder of the assay was performed as previously described (Karu et al., 1994). • 2. Direct competition EIA. Direct EIAs were performed by capturing the MAb on microwells and allowing the analyte to compete with a HRP-conjugated hapten for binding. Bound HRP-conjugate was then detected with a commercial HRP substrate. The sensitivity of this assay was enhanced by use of a commercial enzymatic signal amplification kit (GIBCO-BRL). Wells were coated with 200 or 500 ng of affinity-purified goat anti-mouse IgG or anti-mouse IgG Fc in the coating buffer at 4°C overnight. The next day, the wells were washed and blocked with PBS-Tween-gelatin for 30 minutes at room temperature, and then incubated for 1.5 hours at room temperature with hybridoma culture supernate. The plates were washed with PBS-Tween, and 0.1 mL of diluent containing the analyte and a limiting amount of biotinylated imidazolinone was added for 1.5 h at room temperature. The wells were washed three times with PBS-Tween, and Extravidin-alkaline phosphatase conjugate (Sigma) was then added for 30 minutes at room temperature. The plates were washed again with TBS (0.05 M Tris-HCl, pH 7.5,― 0.15 M NaCl) to remove remaining inorganic phosphate, which can inhibit the GIBCO-BRL EIA Amplification system. Substrate solution for the amplification step (0.05 mL) was added for 15 minutes at room temperature, followed by 0.05 mL of the enzymatic amplifying solution and chromogen. Color development at 492 nm was recorded. • 3. EIA Data Analysis. Color development was monitored on a Multiskan EIA reader (Flow Laboratories) interfaced with a Macintosh computer, and the rates of the reaction were calculated by linear regression. Competition EIA dose- response curves were fitted with a 4-parameter logistic equation (Karu et al., 1994).

[3] = test system: AHAS isozymes, designated I and II; details: isozymes from Black Mexican Sweet corn; cited from earlier work
[4] = test system: scFv p3A5.1c7 (scFv 3A5, SEQ.ID NO. 3); assay: Indirect competition EIA with scFv (16-BSA coating), compared with MAb 3A5.1; format: binding, mouse; details: scFv on 16-BSA versus MAb 3A5.1

Compound	cross-reactivity (MAb 3A2; up to 10 ppm)	other results
CCCN(CCC)C(=O)SCC [EPTC, S-ethyl dipropylthiocarbamate]	No cross-reactivity	–
CCc1cccc(CC)c1N(COC)C(=O)CCl [alachlor, 2-chloro-2'-6'-diethyl-N-(methoxymethyl)-acetanilide]	No cross-reactivity	–
CCNc1nc(Cl)nc(NC(C)C)n1 [atrazine, Atrazine]	No cross-reactivity	–
CCOC(=O)c1ccccc1S(=O)(=O)NC(=O)Nc1nc(Cl)cc(OC)n1 [chlorimuron ethyl, ethyl 2-[[[[(4-chloro-6-methoxypyrimidin 2-yl)amino]carbonyl]amino]sulfonyl]benzoate]	–	inhibition (MAb 3A2): 10-15%; cross-reactivity (MAb 3A2; up to 5 ppm): did not cross-react
COc1nc(C)nc(NC(=O)NS(=O)(=O)c2ccccc2Cl)n1 [chlorsulfuron, 2-chloro-N[(4-methoxy-6-methyl-1,3,5 triazin-2-yl)aminocarbonyl]benzenesulfonamide]	–	inhibition (MAb 3A2): 10-15%; cross-reactivity (MAb 3A2; up to 5 ppm): did not cross-react
CC(C)N.O=C(O)CNCP(=O)(O)O [glyphosate, N-(phosphono-methyl) glycine isopropylamine salt]	No cross-reactivity	–
CC(C)C1(C)N=C(c2ncc(C=CC(=O)O)cc2C(=O)O)NC1=O (stereo not shown) [hapten 16, imazapyr-5-propenoic acid]	–	affinity of the scFv relative to that of the MAb (fold poorer) [1]: about 1,000 fold
Cc1cnc(C2=NC(C)(C(C)C)C(=O)N2)c(C(=O)O)c1 (stereo not shown) [imazapic, 5-methyl-2-(4-isopropyl-4-methyl-5-oxo-2-imidazolin-2-yl) nicotinic acid]	–	detection range [2]: 3 to 30 ng/mL
CC(C)C1(C)N=C(c2ncccc2C(=O)O)NC1=O (stereo not shown) [imazapyr, 2-(4-isopropyl-4-methyl-5-oxo-2-imidazolin-2-yl) nicotinic acid]	–	detection range [2]: 300-500 ppb; sensitivity of AHAS II vs AHAS I to inhibition [3]: significantly more sensitive
CC(C)C1(C)N=C(c2nc3ccccc3cc2C(=O)O)NC1=O (stereo not shown) [imazaquin, 2-(4-isopropyl-4-methyl-5-oxo-2-imidazolin-2-yl)-3-quinoline carboxylic acid]	–	detection range [2]: 3 to 30 ng/mL; I50 with scFv relative to I50 with the MAb (higher = less sensitive) [4]: about two-fold
CCc1cccc(C)c1N(C(=O)CCl)C(C)COC (stereo not shown) [metolachlor, 2-chloro-N-(2-ethyl-6-methylphenyl)-N-(2-methoxy-1-methylethyl) acetamide]	No cross-reactivity	–
CCSC(=O)N1CCCCCC1 [molinate, S-ethyl-hexahydro-1-H-azepine-1-carbothioate]	No cross-reactivity	–
CCOc1cc(Oc2ccc(C(F)(F)F)cc2Cl)ccc1[N+](=O)[O-] [oxyfluorfen, 2-chloro-1-(3-ethoxy-4-nitrophenoxy)-4-(trifluoromethyl) benzene]	No cross-reactivity	–
C[n+]1ccc(-c2cc[n+](C)cc2)cc1.[Cl-].[Cl-] [paraquat, 1,1'-dimethyl-4,4'-bipyridinium dichloride]	No cross-reactivity	–
CCC(CC)Nc1c([N+](=O)[O-])cc(C)c(C)c1[N+](=O)[O-] [pendimethalin, N-(1-ethylpropyl)-3,4-dimethyl-2,6-dinitrobenzenamine]	No cross-reactivity	–
COC(=O)Nc1cccc(OC(=O)Nc2cccc(C)c2)c1 [phenmedipham, 3-methoxycarbonylaminophenyl-N(3'-methylphenyl)carbamate]	No cross-reactivity	–
CCC/C(=N\OCC)C1=C(O)CC(CC(C)SCC)CC1=O (stereo not shown) [sethoxydim]	No cross-reactivity	–
a mixture of methyl 6-(4-isopropyl-4-methyl-5-oxo-2-imidazolin-2-yl) m-toluate and methyl 2-(4-isopropyl-4-methyl-5-oxo-2-imidazolin-2-yl) p-toluate [imazamethabenz-methyl]	–	detection range [2]: 300-500 ppb
